This passage reports MIC and Ratio results from ChEMBL document CHEMBL1821612, “Discovery of novel antitubercular 3a,4-dihydro-3H-indeno[1,2-c]pyrazole-2-carboxamide/carbothioamide analogues” (Bioorg Med Chem Lett, 2011).

Converted amounts (≈) assume the structure as drawn.

For assay [1], the system named is Mycobacterium tuberculosis. As to the kind of experiment: Antimycobacterial activity against isoniazid-resistant Mycobacterium tuberculosis after 2 weeks by BACTEC 460 radiometric method. In kind it is functional. The conditions noted are these: 336 h.
Assay [2] concerns Mycobacterium tuberculosis. The experiment in a line: Ratio of isoniazid MIC to compound MIC for isoniazid-resistant Mycobacterium tuberculosis. In kind it is functional.

By MIC is commonly meant the least concentration at which growth counts as inhibited. A high value points to weaker potency. With `COc1cc2c(cc1OC)C1=NN(C(=O)Nc3ccc(C)cc3C)C(c3ccc(F)cc3)C1C2` (stereo unspecified), the MIC in assay [1] came to 12.5 µM (≈ 5.74 µg/mL). With `COc1ccc(C2C3Cc4cc(OC)c(OC)cc4C3=NN2C(=O)Nc2c(C)cccc2C)cc1OC` (stereo unspecified), in assay [1], the MIC is more than 12.5 µM.

Take `NNC(=O)c1ccncc1` [ISONIAZID]: in assay [1], 12.5 µM (≈ 1.71 µg/mL) was the least that counted as inhibitory (MIC).

Consider `COc1ccc(C2C3Cc4cc(OC)c(OC)cc4C3=NN2C(=O)Nc2ccc(C)cc2C)cc1OC` (stereo unspecified), for which, in assay [1], the minimum inhibitory concentration (MIC) is more than 12.5 µM.

With `COc1ccc(C2C3Cc4cc(OC)c(OC)cc4C3=NN2C(=O)Nc2c(C)cccc2C)cc1` (stereo unspecified), the MIC in assay [1] is more than 12.5 µM. On to `COc1cc2c(cc1OC)C1=NN(C(=O)Nc3ccc(C)cc3C)C(c3ccncc3)C1C2` (stereo unspecified), for which the minimum inhibitory concentration (MIC) in assay [1] was more than 12.5 µM.

In assay [1], `COc1cc2c(cc1OC)C1=NN(C(=O)Nc3c(C)cccc3C)C(c3ccc(F)cc3)C1C2` (stereo unspecified) had a minimum inhibitory concentration (MIC) of 10 µM (≈ 4.6 µg/mL). For the compound `COc1cc2c(cc1OC)C1=NN(C(N)=S)C(c3ccc(F)cc3)C1C2` (stereo unspecified), the Ratio in assay [2] turned out to be 2. The compound further registered an MIC in assay [1] of 6.25 µM (≈ 2.32 µg/mL). As for `COc1cc2c(cc1OC)C1=NN(C(N)=S)C(c3ccncc3)C1C2` (stereo unspecified), the minimum inhibitory concentration (MIC) in assay [1] is 10 µM (≈ 3.54 µg/mL). Same read-out and setting: the figure for `COc1cc2c(cc1OC)C1=NN(C(N)=S)C(c3ccccc3Cl)C1C2` (stereo unspecified) is 10 µM (≈ 3.88 µg/mL).

Take `CO[C@H]1/C=C/O[C@@]2(C)Oc3c(C)c(O)c4c(O)c(c(/C=N/N5CCN(C)CC5)c(O)c4c3C2=O)NC(=O)/C(C)=C\C=C\[C@H](C)[C@H](O)[C@@H](C)[C@@H](O)[C@@H](C)[C@H](OC(C)=O)[C@@H]1C` [RIFAMPIN]: in assay [1], the lowest concentration to inhibit growth (MIC) was 3.12 µM (≈ 2.57 µg/mL). Same read-out and setting: the figure for `COc1ccc(C2C3Cc4cc(OC)c(OC)cc4C3=NN2C(N)=S)cc1OC` (stereo unspecified) is 12.5 µM (≈ 5.17 µg/mL); for `COc1cc2c(cc1OC)C1=NN(C(=O)Nc3ccc(C)cc3C)C(c3ccccc3Cl)C1C2` (stereo unspecified) it is 10 µM (≈ 4.76 µg/mL).

Compound `COc1cc2c(cc1OC)C1=NN(C(=O)Nc3c(C)cccc3C)C(c3ccccc3Cl)C1C2` (stereo unspecified) returned an MIC in assay [1] of 12.5 µM (≈ 5.95 µg/mL). `COc1cc2c(cc1OC)C1=NN(C(N)=S)C(c3ccccc3)C1C2` (stereo unspecified) yielded an MIC in assay [1] of 12.5 µM (≈ 4.42 µg/mL). Same read-out and setting: with `COc1cc2c(cc1OC)C1=NN(C(=O)Nc3ccc(C)cc3C)C(c3ccccc3)C1C2` (stereo unspecified) the figure was more than 12.5 µM; with `COc1ccc(C2C3Cc4cc(OC)c(OC)cc4C3=NN2C(N)=S)cc1` (stereo unspecified), more than 12.5 µM.

In turn, `COc1cc2c(cc1OC)C1=NN(C(=O)Nc3c(C)cccc3C)C(c3ccncc3)C1C2` (stereo unspecified) displayed a minimum inhibitory concentration (MIC) in assay [1] of more than 12.5 µM. The same measure, in the same setting: the figure for `COc1ccc(C2C3Cc4cc(OC)c(OC)cc4C3=NN2C(=O)Nc2ccc(C)cc2C)cc1` (stereo unspecified) is more than 12.5 µM; for `COc1cc2c(cc1OC)C1=NN(C(=O)Nc3c(C)cccc3C)C(c3ccccc3)C1C2` (stereo unspecified) it is more than 12.5 µM.
